The results in this text go back to article PMC4459817, “Vasculotide reduces endothelial permeability and tumor cell extravasation in the absence of binding to or agonistic activation of Tie2” (EMBO Molecular Medicine, 2015).

For test [1], the system named is human microvascular ECs of dermal blood vessel origin (HMVEC-DBl). The experiment in a line: modified Boyden chamber, thrombin-stimulated FITC-dextran permeability, HMVEC-DBl. The class given is cell-based. The following applies: Fig1D. As to the method:
ECs were first treated with Vasculotide (VT), PBS (vehicle/negative control), Ang1 (positive control), PEG-Cys (polyethylene glycol backbone), T7c (non-PEGylated CHHHRHSF peptides), or VT in the presence of 100-fold molar excess of T7c. The concentrations used, 10–20 ng/mL VT and 200–400 ng/mL Ang1, are estimated molar equivalents (0.71–1.43 nM). Thirty minutes later, ECs were stimulated with thrombin, 0.1% BSA (vehicle/negative control), or EDTA (positive control). Another 30mins later, the amount of FITC-dextran diffusion into the lower chambers (A, D) provides a measure of endothelial permeability. CMTPX-labeled tumor cells (TCs) were then dispensed into inserts, and the amount of TC fluorescence emitting from the underside of insert membranes after 20 h (B–C) or 28 h (E) reflects the efficiency of trans-endothelial TC migration. Representative fluorescent images (10×) of membrane undersides are shown in (C), where DAPI-stained nuclei of ECs/TCs are shown in blue, ‘extravasated’ CMTPX-labeled TCs are shown in red, and the # of CMTPX^+ pixels are shown numerically in red. Means ± SEM are shown (A,B,D,E). Three experiments (twice with HMVEC-LBl and once with HMVEC-DBl) were run with n = 3–5 inserts (independent biological replicates) per group and analyzed by two-sampled unpaired t-tests. […]
Endothelial cells (ECs) were grown on cell culture inserts with uncoated 8-μm-pore PET filter membranes to 100% confluency. […] After 30 min of thrombin stimulation or 4–6 h of TC-CM stimulation, FITC fluorescence (ex/em = 490/520 nm) was measured from a 50 μl sample of the lower chamber media. […] CMPTX fluorescence from migrated TCs was then quantified from 10× microscopy images using a MATLAB (MathWorks, Natick, MA, USA) script; five images (technical replicates) were analyzed per insert. […]

The target of test [2] is T1, mouse Tie2-Fc (Fc-conjugated extracellular domain of Tie2) (mouse, UniProt Q02858 23-746).
T1 chain: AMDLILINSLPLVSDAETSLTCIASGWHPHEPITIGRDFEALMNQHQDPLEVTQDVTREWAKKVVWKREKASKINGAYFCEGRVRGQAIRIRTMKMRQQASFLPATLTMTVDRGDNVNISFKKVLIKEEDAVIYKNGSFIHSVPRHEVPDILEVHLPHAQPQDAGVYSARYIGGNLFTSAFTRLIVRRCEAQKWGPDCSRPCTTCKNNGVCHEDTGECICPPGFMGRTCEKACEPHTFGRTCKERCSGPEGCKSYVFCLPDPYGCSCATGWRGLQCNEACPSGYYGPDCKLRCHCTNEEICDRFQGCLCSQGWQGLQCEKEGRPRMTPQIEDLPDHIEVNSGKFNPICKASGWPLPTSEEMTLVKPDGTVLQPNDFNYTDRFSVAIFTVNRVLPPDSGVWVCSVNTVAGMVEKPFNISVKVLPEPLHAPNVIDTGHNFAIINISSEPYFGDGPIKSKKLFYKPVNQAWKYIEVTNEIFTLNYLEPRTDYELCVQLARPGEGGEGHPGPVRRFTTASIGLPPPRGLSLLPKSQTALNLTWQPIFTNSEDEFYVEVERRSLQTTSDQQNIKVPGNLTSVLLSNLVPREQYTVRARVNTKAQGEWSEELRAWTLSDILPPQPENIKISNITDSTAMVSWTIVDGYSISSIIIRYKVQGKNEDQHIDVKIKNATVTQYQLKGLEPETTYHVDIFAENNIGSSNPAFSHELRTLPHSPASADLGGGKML
The experiment in a line: SPR. Background: In SPR one partner is held on a chip, and binding of the other changes the refractive index at the surface.

The target in test [3] is T2, mouse Tie2-Fc (Fc-conjugated extracellular domain of Tie2) (mouse, UniProt Q02858 23-746).
T2 construct: Tie2 receptor tyrosine kinase, mouse, extracellular domain; the supplementary Materials and Methods may tell them; also called mTie2-Fc; mTie2; source: purified
The experiment in a line: pull-down; purified human or mouse Tie2-Fc coupled to protein A sepharose beads; input ligand (rhAng1 or VT) incubated with the beads; bound and unbound fractions compared; beads only as control. The settings on record: both partners purified.

The term koff denotes the first-order rate constant of dissociation. Lower therefore signals a long-lived complex.

For the molecule “CHHHRHSF [Vasculotide, 4-armed maleimide-functionalized polyethylene glycol (PEG) backbone to link together four cysteine-capped T7 peptides, that is, CHHHRHSF]”, in test [1] (HMVEC-DBl), the “anti-permeability effect of VT in presence of 100-fold molar excess of T7c” value was “dampened the effects of VT”. Moreover, the “transendothelial permeability of FITC-dextran” value in test [1] (thrombin-stimulated HMVEC-DBl, VT 10–20 ng/mL, FITC fluorescence ex/em 490/520 nm, n = 3–5 inserts) was “counteract thrombin-stimulated increases in transendothelial permeability of FITC-dextran (P < 0.05”.

B1: recombinant human Ang1 (rhAng1) (ligand, UniProt Q15389 16-498, looked up)
chain: HIGCSNQRRSPENSGRRYNRIQHGQCAYTFILPEHDGNCRESTTDQYNTNALQRDAPHVEPDFSSQKLQHLEHVMENYTQWLQKLENYIVENMKSEMAQIQQNAVQNHTATMLEIGTSLLSQTAEQTRKLTDVETQVLNQTSRLEIQLLENSLSTYKLEKQLLQQTNEILKIHEKNSLLEHKILEMEGKHKEELDTLKEEKENLQGLVTRQTYIIQELEKQLNRATTNNSVLQKQQLELMDTVHNLVNLCTKEGVLLKGGKREEEKPFRDCADVYQAGFNKSGIYTIYINNMPEPKKVFCNMDVNGGGWTVIQHREDGSLDFQRGWKEYKMGFGNPSGEYWLGNEFIFAITSQRQYMLRIELMDWEGNRAYSQYDRFHIGNEKQNYRLYLKGHTGTAGKQSSLILHGADFSTKDADNDNCMCKCALMLTGGWWFDACGPSNLNGMFYTAGQNHGKLNGIKWHYFKGPSYSLRSTTMMIRPLDF
notes: angiopoietin-1, human, recombinant; also called angiopoietin-1; source: bought: R&D Systems (named for the Boyden chamber experiments)
The molecule B1 yielded a koff in test [2] of 0.00033 s⁻¹. In addition, in test [3], the binding result was “binds”.
